“And” between values parts separate entries of the source, which are not always exact repeats. Identical values can stand only once. Like-named read-outs stand apart in the source and are kept apart here.
Tested on: L. major lysate proteins
Test: Multitargeted bead mixture chemoproteomics, single concentration competition, proteome-wide
Assay type: binding
Details: for fold change: vehicle control = 1

Compound: NCCOCCOCC(=O)Nc1nc2ncc(CNc3ccc(C(=O)NC(CCC(=O)O)C(=O)O)cc3)nc2c(=O)[nH]1 (stereo not drawn) [compound 6]
- fold change vs vehicle control: 1.04 and 1.02
- protein inhibition, any captured protein (Figure 8) (bead mixture, L. major lysate): no protein inhibition >30%
- fold change vs vehicle control (protein CLI00016468.1 KINETOPLASTID MEMBRANE PROTEIN-11): 0.79
- fold change vs vehicle control (protein LINJ.03.0240 RIBOSOMAL PROTEIN L38, PUTATIVE): 1.35
- fold change vs vehicle control (protein LINJ.11.0780 40S RIBOSOMAL PROTEIN S21, PUTATIVE): 1.03
- fold change (protein LINJ.11.0960 40S RIBOSOMAL PROTEIN S5): 1.03
- fold change vs vehicle control (protein LINJ.13.0990 PROTEASOME REGULATORY ATPASE SUBUNIT 2, PUTATIVE): 0.92
- fold change vs vehicle control (protein LINJ.15.0330 RIBONUCLEOPROTEIN P18, MITOCHONDRIAL PRECURSOR, PUTATIVE): 0.98
- fold change (protein LINJ.19.0090 FIBRILLARIN, PUTATIVE): 0.87
- fold change relative to vehicle control (protein LINJ.23.0860, 3-KETOACYL-COA THIOLASE, PUTATIVE): 1.25
- fold change relative to vehicle control (protein LINJ.24.2300, 60S RIBOSOMAL PROTEIN L12, PUTATIVE): 1
- fold change vs vehicle control (protein LINJ.25.2230 SUCCINYL-COA […] SUBUNIT, PUTATIVE): 1.06
- fold change vs vehicle control (protein LINJ.26.1630 40S RIBOSOMAL PROTEIN S33, PUTATIVE): 1.13
- fold change vs vehicle control (protein LINJ.28.1100 RIBOSOMAL PROTEIN S20, PUTATIVE): 0.92
- fold change relative to vehicle control (protein LINJ.28.1940, REPLICATION FACTOR A, 51KDA SUBUNIT, PUTATIVE): 0.96
- fold change (protein LINJ.28.2280 DYNEIN LIGHT CHAIN LC6, FLAGELLAR OUTER ARM, PUTATIVE): 0.7
- fold change (protein LINJ.28.2870 PROTEIN PHOSPHATASE 4 CATALYTIC SUBUNIT, PUTATIVE): 0.82
- fold change relative to vehicle control (protein LINJ.31.1600, […] OXIDASE VIII (COX VIII), PUTATIVE): 0.8
- fold change relative to vehicle control (protein LINJ.33.1730, CYCLOPHILIN 4, PUTATIVE): 1.42
- fold change vs vehicle control (protein LINJ.34.0670 […]-ATP-ASE SUBUNIT 11, PUTATIVE,19S […]): 1.08
- fold change vs vehicle control (protein LINJ.36.0780 PROTEIN KINASE, PUTATIVE,MITOGEN-ACTIVATED PROTEIN KINASE, PUTATIVE): 1.16
- fold change relative to vehicle control (protein LINJ.36.3960, BASIC TRA[…] 3A, PUTATIVE): 1.37
- fold change vs vehicle control (protein LINJ.36.4070 EUKARYOTIC TRANSLATION INITIATION FACTOR 3 SUBUNIT, PUTATIVE): 0.98
- fold change relative to vehicle control (protein LINJ.36.4080, HY[…], CONSERVED): 1.12
- fold change (protein LINJ.36.4180 HS1VU COMPLEX P[…]-LIKE): 1.02
- fold change vs vehicle control (protein LINJ.[…] LONG-CHAIN-FATTY-ACID-COA LIGASE, PUTATIVE): 0.98
- fold change (protein LMJF.01.0570 TRIC[…], PUTATIVE): 0.96
- fold change relative to vehicle control (protein LMJF.03.0200, DELTA-1-PYRROLINE-5-CARBOXYLATE DEHYDROGENASE, PUTATIVE): 1.14
- fold change (protein LMJF.03.0230 LONG CHAIN FATTY ACYL COA SYNTHETASE, PUTATIVE): 1
- fold change (protein LMJF.03.0980 ELONGATION INITIATION FACTOR 2 ALPHA SUBUNIT, PUTATIVE): 0.99
- fold change vs vehicle control (protein LMJF.04.0630 HY[…], CONSERVED): 1.04
- fold change vs vehicle control (protein LMJF.04.1230 actin): 1.07
- fold change (protein LMJF.05.0100 PHOSPHOPROTEIN PHOSPHATASE, PUTATIVE): 0.99
- fold change (protein LMJF.05.0280 PROTEIN TYROSINE PHOSPHATASE, PUTATIVE): 0.92
- fold change (protein LMJF.05.0510 ATPASE ALPHA SUBUNIT): 1.08
- fold change (protein LMJF.05.1040 STOMATIN-LIKE PROTEIN): 0.97
- fold change (protein LMJF.06.0650 LANOSTEROL SYNTHASE, PUTATIVE): 0.97
- fold change vs vehicle control (protein LMJF.07.0700 TOPOISOMERASE-RELATED FUNCTION PROTEIN-LIKE PROTEIN): 0.83
- fold change (protein LMJF.07.1000 RNA BINDING PROTEIN-LIKE PROTEIN): 0.9
- fold change relative to vehicle control (protein LMJF.07.1140, PEPTIDE […] REDUCTASE-LIKE): 1.14
- fold change (protein LMJF.08.0510 RIBOSE-PHOSPHATE PYROPHOSPHOKINASE, PUTATIVE): 0.97
- fold change vs vehicle control (protein LMJF.08.0550 T[…]-LIKE PROTEIN): 1.05
- fold change relative to vehicle control (protein LMJF.08.1030, cathepsin L-like protease): 0.94
- fold change vs vehicle control (protein LMJF.08.1100 HY[…], CONSERVED): 1.01
- fold change vs vehicle control (protein LMJF.09.1010 HYPOTHETICAL PROTEIN, CONSERVED): 0.88
- fold change relative to vehicle control (protein LMJF.09.1120, MIT[…] BINDING PROTEIN 2,MRP2, GBP25): 1.13
- fold change vs vehicle control (protein LMJF.09.1260 HYPOTHETICAL PROTEIN, CONSERVED): 0.98
- fold change (protein LMJF.10.0210 NUCLEOLAR PROTEIN, PUTATIVE): 1.03
- fold change vs vehicle control (protein LMJF.10.0310 PROTEIN TRANSPORT PROTEIN SEC23, PUTATIVE): 0.91
- fold change (protein LMJF.11.0590 3-[…]-COA C[…] SUBUNIT, PUTATIVE): 0.92
- fold change relative to vehicle control (protein LMJF.11.0630, AMINOPEPTIDASE, PUTATIVE,METALLO-PEPTIDASE, CLAN MF, FAMILY M17): 1.13
- fold change vs vehicle control (protein LMJF.11.1050 PRETRA[…], ALPHA SUBUNIT, PUTATIVE,SEC61-LIKE (PRETRA[…]) PROTEIN, PUTATIVE): 1.04
- fold change (protein LMJF.11.1160 PROTEIN TRANSPORT PROTEIN SEC31, PUTATIVE): 0.87
- fold change (protein LMJF.12.0030 PROTEASOME BETA-1 SUBUNIT, PUTATIVE): 0.9
- fold change vs vehicle control (protein LMJF.12.0210 […] […]1L8 3, PUTATIVE): 0.98
- fold change relative to vehicle control (protein LMJF.12.0530, GLUCOSE-6-PHOSPHATE ISOMERASE): 1.41
- fold change (protein LMJF.12.0630 ALANINE AMINOTRANSFERASE): 0.95
- fold change vs vehicle control (protein LMJF.13.1230 40S RIBOSOMAL PROTEIN S4, PUTATIVE): 1.22
- fold change vs vehicle control (protein LMJF.14.0310 PROTEASOME ALPHA 3 SUBUNIT, PUTATIVE): 0.96
- fold change (protein LMJF.14.0660 FATTY ACID ELONGASE, PUTATIVE): 1.14
- fold change (protein LMJF.14.0670 FATTY ACID ELONGASE, PUTATIVE): 0.98
- fold change vs vehicle control (protein LMJF.14.0680 FATTY ACID ELONGASE, PUTATIVE): 1.13
- fold change (protein LMJF.14.0990 ADP/ATP MIT[…]-LIKE PROTEIN): 1.32
- fold change vs vehicle control (protein LMJF.14.1160 ENOLASE): 1.1
- fold change (protein LMJF.14.1440 HYPOTHETICAL PROTEIN, CONSERVED (cytoskeleton associated protein, putative)): 0.82
- fold change (protein LMJF.15.0040 HYPOTHETICAL PROTEIN, CONSERVED (Possible lysine decarboxylase, putative)): 0.84

— article PMC6199744, “Development of Chemical Proteomics for the Folateome and Analysis of the Kinetoplastid Folateome” (ACS Infectious Diseases, 2018)
